Broadly, the Ki is a dissociation constant, usually derived from enzyme kinetics or from competition with a known ligand. Low values mean tighter binding, high ones weaker binding.

Where a SMILES comes first, the peptide text is derived from it. [ ]: non-standard residue; d: D form. ξ: configuration not given here. Ile(3ξ) = CCC(C)[C@H](N)C(=O)O

Experimental findings from BindingDB's records for doi:10.1016/s0028-3908(05)80009-7 (Universit&Eacute, 1994) are described below.

In this assay the target is T1, Pituitary adenylate cyclase-activating polypeptide (Rattus norvegicus, UniProt P13589).
T1 sequence (P13589 whole entry): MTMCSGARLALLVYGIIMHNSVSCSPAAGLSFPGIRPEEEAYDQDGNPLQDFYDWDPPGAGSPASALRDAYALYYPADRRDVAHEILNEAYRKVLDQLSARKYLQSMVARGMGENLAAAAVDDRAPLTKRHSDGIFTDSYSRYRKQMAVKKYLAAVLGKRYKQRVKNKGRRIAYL
Regarding `CC[C@H](C)[C@H](NC(=O)CNC(=O)[C@H](CC(=O)O)NC(=O)[C@@H](CCCN=C(N)N)NC(=O)[C@@H](N)Cc1cnc[nH]1)C(=O)N[C@@H](Cc1ccccc1)C(=O)N[C@H](C(=O)N[C@@H](CC(=O)O)C(=O)N[C@@H](CO)C(=O)N[C@@H](Cc1ccc(O)cc1)C(=O)N[C@@H](CO)C(=O)N[C@@H](CCCN=C(N)N)C(=O)N[C@@H](Cc1ccc(O)cc1)C(=O)N[C@@H](CCCN=C(N)N)C(=O)N[C@@H](CCCCN)C(=O)N[C@@H](CCC(N)=O)C(=O)N[C@@H](CCSC)C(=O)N[C@@H](C)C(=O)N[C@H](C(=O)N[C@@H](CCCCN)C(=O)N[C@@H](CCCCN)C(=O)N[C@@H](Cc1ccc(O)cc1)C(=O)N[C@@H](CC(C)C)C(=O)N[C@@H](C)C(=O)N[C@@H](C)C(=O)N[C@H](C(=O)N[C@@H](CC(C)C)C(=O)NCC(=O)N[C@@H](CCCCN)C(=O)N[C@@H](CCCN=C(N)N)C(=O)N[C@@H](Cc1ccc(O)cc1)C(=O)N[C@@H](CCCCN)C(=O)N[C@@H](CCC(N)=O)C(=O)N[C@@H](CCCN=C(N)N)C(=O)N[C@H](C(=O)N[C@@H](CCCCN)C(=O)N[C@@H](CC(N)=O)C(=O)N[C@@H](CCCCN)C(N)=O)C(C)C)C(C)C)C(C)C)[C@@H](C)O` [[DArg2]PACAP(1-38)], the affinity, expressed as Ki, was 10 nM. The same measure for “H-DSYSRYRKQMAVKKYLAAVLGKRYKQRVKNK-NH2 [PACAP(8-38)]”: 30 nM; for `CCC(C)[C@H](NC(=O)CNC(=O)[C@H](CC(=O)O)NC(=O)[C@@H](N)CO)C(=O)N[C@@H](Cc1ccccc1)C(=O)N[C@H](C(=O)N[C@@H](CC(=O)O)C(=O)N[C@@H](CO)C(=O)N[C@@H](Cc1ccc(O)cc1)C(=O)N[C@@H](CO)C(=O)N[C@@H](CCCN=C(N)N)C(=O)N[C@@H](Cc1ccc(O)cc1)C(=O)N[C@@H](CCCN=C(N)N)C(=O)N[C@@H](CCCCN)C(=O)N[C@@H](CCC(N)=O)C(=O)N[C@@H](CCSC)C(=O)N[C@@H](C)C(=O)N[C@H](C(=O)N[C@@H](CCCCN)C(=O)N[C@@H](CCCCN)C(=O)N[C@@H](Cc1ccc(O)cc1)C(=O)N[C@@H](CC(C)C)C(=O)N[C@@H](C)C(=O)N[C@@H](C)C(=O)N[C@H](C(=O)N[C@@H](CC(C)C)C(=O)NCC(=O)N[C@@H](CCCCN)C(=O)N[C@@H](CCCN=C(N)N)C(=O)N[C@@H](Cc1ccc(O)cc1)C(=O)N[C@@H](CCCCN)C(=O)N[C@@H](CCC(N)=O)C(=O)N[C@@H](CCCN=C(N)N)C(=O)N[C@H](C(=O)N[C@@H](CCCCN)C(=O)N[C@@H](CC(N)=O)C(=O)N[C@@H](CCCCN)C(N)=O)C(C)C)C(C)C)C(C)C)[C@@H](C)O` (stereo partly specified) [PACAP(2-38)] (H-SDG[Ile(3ξ)]FTDSYSRYRKQMAVKKYLAAVLGKRYKQRVKNK-NH2): 3 nM; for H-SRYRKQMAVKKYLAAVL-NH2 [PACAP(11-27)]: 6000 nM.

The compound `CC[C@H](C)[C@H](NC(=O)CNC(=O)[C@H](CC(=O)O)NC(=O)[C@H](C)NC(=O)[C@@H](N)Cc1cnc[nH]1)C(=O)N[C@@H](Cc1ccccc1)C(=O)N[C@H](C(=O)N[C@@H](CC(=O)O)C(=O)N[C@@H](CO)C(=O)N[C@@H](Cc1ccc(O)cc1)C(=O)N[C@@H](CO)C(=O)N[C@@H](CCCNC(=N)N)C(=O)N[C@@H](Cc1ccc(O)cc1)C(=O)N[C@@H](CCCNC(=N)N)C(=O)N[C@@H](CCCCN)C(=O)N[C@@H](CCC(N)=O)C(=O)N[C@@H](CCSC)C(=O)N[C@@H](C)C(=O)N[C@H](C(=O)N[C@@H](CCCCN)C(=O)N[C@@H](CCCCN)C(=O)N[C@@H](Cc1ccc(O)cc1)C(=O)N[C@@H](CC(C)C)C(=O)N[C@@H](C)C(=O)N[C@@H](C)C(=O)N[C@H](C(=O)N[C@@H](CC(C)C)C(N)=O)C(C)C)C(C)C)[C@@H](C)O` [[Ala2]PACAP(1-27)] displayed a Ki of 0.3 nM. This Ki is about 20000-fold lower than that of the compound before. The same measure for `CCC(C)[C@H](NC(=O)CNC(=O)[C@H](CC(=O)O)NC(=O)[C@@H](Cc1ccccc1)NC(=O)[C@@H](N)Cc1cnc[nH]1)C(=O)N[C@@H](Cc1ccccc1)C(=O)N[C@H](C(=O)N[C@@H](CC(=O)O)C(=O)N[C@@H](CO)C(=O)N[C@@H](Cc1ccc(O)cc1)C(=O)N[C@@H](CO)C(=O)N[C@@H](CCCN=C(N)N)C(=O)N[C@@H](Cc1ccc(O)cc1)C(=O)N[C@@H](CCCN=C(N)N)C(=O)N[C@@H](CCCCN)C(=O)N[C@@H](CCC(N)=O)C(=O)N[C@@H](CCSC)C(=O)N[C@@H](C)C(=O)N[C@H](C(=O)N[C@@H](CCCCN)C(=O)N[C@@H](CCCCN)C(=O)N[C@@H](Cc1ccc(O)cc1)C(=O)N[C@@H](CC(C)C)C(=O)N[C@@H](C)C(=O)N[C@@H](C)C(=O)N[C@H](C(=O)N[C@@H](CC(C)C)C(N)=O)C(C)C)C(C)C)[C@@H](C)O` (stereo partly drawn) [[D-Phe2]PACAP-27]: 800 nM; for “H-TDSYSRYRKQMAVKKYLAAVL-NH2 [PACAP(6-27)]”: 3000 nM. The same measure for `CC[C@H](C)[C@H](NC(=O)CNC(=O)[C@H](CC(N)=O)NC(=O)[C@H](CO)NC(=O)[C@@H](N)Cc1cnc[nH]1)C(=O)N[C@@H](Cc1ccccc1)C(=O)N[C@H](C(=O)N[C@@H](CC(=O)O)C(=O)N[C@@H](CO)C(=O)N[C@@H](Cc1ccc(O)cc1)C(=O)N[C@@H](CO)C(=O)N[C@@H](CCCNC(=N)N)C(=O)N[C@@H](Cc1ccc(O)cc1)C(=O)N[C@@H](CCCNC(=N)N)C(=O)N[C@@H](CCCCN)C(=O)N[C@@H](CCC(N)=O)C(=O)N[C@@H](CCSC)C(=O)N[C@@H](C)C(=O)N[C@H](C(=O)N[C@@H](CCCCN)C(=O)N[C@@H](CCCCN)C(=O)N[C@@H](Cc1ccc(O)cc1)C(=O)N[C@@H](CC(C)C)C(=O)N[C@@H](C)C(=O)N[C@@H](C)C(=O)N[C@H](C(=O)N[C@@H](CC(C)C)C(N)=O)C(C)C)C(C)C)[C@@H](C)O` [[Asn3]PACAP(1-27)]: 4000 nM; for `CC[C@H](C)[C@H](NC(=O)CNC(=O)[C@H](CC(=O)O)NC(=O)[C@@H](CCCN=C(N)N)NC(=O)[C@@H](N)Cc1cnc[nH]1)C(=O)N[C@@H](Cc1ccccc1)C(=O)N[C@H](C(=O)N[C@@H](CC(=O)O)C(=O)N[C@@H](CO)C(=O)N[C@@H](Cc1ccc(O)cc1)C(=O)N[C@@H](CO)C(=O)N[C@@H](CCCN=C(N)N)C(=O)N[C@@H](Cc1ccc(O)cc1)C(=O)N[C@@H](CCCN=C(N)N)C(=O)N[C@@H](CCCCN)C(=O)N[C@@H](CCC(N)=O)C(=O)N[C@@H](CCSC)C(=O)N[C@@H](C)C(=O)N[C@H](C(=O)N[C@@H](CCCCN)C(=O)N[C@@H](CCCCN)C(=O)N[C@@H](Cc1ccc(O)cc1)C(=O)N[C@@H](CC(C)C)C(=O)N[C@@H](C)C(=O)N[C@@H](C)C(=O)N[C@H](C(=O)N[C@@H](CC(C)C)C(N)=O)C(C)C)C(C)C)[C@@H](C)O` [[DArg2]PACAP(1-27)]: 500 nM. With `[C][C][C]([C])[C@H]([N]C(=O)[C][N]C(=O)[C@H]([C][C]C([O])=O)[N]C(=O)[C@@H]([N])[C][O])C(=O)[N][C@@H]([C]c1ccccc1)C(=O)[N][C@H](C(=O)[N][C@@H]([C]C([O])=O)C(=O)[N][C@@H]([C][O])C(=O)[N][C@@H]([C]c1ccc([O])cc1)C(=O)[N][C@@H]([C][O])C(=O)[N][C@@H]([C][C][C]N=C([N])[N])C(=O)[N][C@@H]([C]c1ccc([O])cc1)C(=O)[N][C@@H]([C][C][C]N=C([N])[N])C(=O)[N][C@@H]([C][C][C][C][N])C(=O)[N][C@@H]([C][C]C([N])=O)C(=O)[N][C@@H]([C][C]S[C])C(=O)[N][C@@H]([C])C(=O)[N][C@@H]([C]([C])[C])C(=O)[N][C@@H]([C][C][C][C][N])C(=O)[N][C@@H]([C][C][C][C][N])C(=O)[N][C@@H]([C]c1ccc([O])cc1)C(=O)[N][C@@H]([C][C]([C])[C])C(=O)[N][C@@H]([C])C(=O)[N][C@@H]([C])C(=O)[N][C@@H]([C]([C])[C])C(=O)[N][C@@H]([C][C]([C])[C])C([N])=O)[C@@H]([C])[O]` [PACAP(2-27)], the Ki came to 30 nM. This Ki is about 17-fold lower than that of the compound before.

“H-FTDSYSRYRKQMAVKKYLAAVL-NH2 [PACAP(5-27)]”: the Ki is 1000 nM.
